According to patent US6562793B2, “Antiallergic agent” (We'll Corporation, priority 2000, dated 2003):

Experiments:
[1] = Solubility in water; assay type: physicochemical
[2] = tested on: mast cells from the rat abdominal cavity; assay: Inhibition of histamine release from mast cells from a rat abdominal cavity; assay type: cell-based; conditions: Releaser: Compound 48/80
Protocol: A mast cell suspension is collected from a rat abdominal cavity. The suspension is treated with a sample adjusted to 1 to 0.01% (specimen) and to the mixture is added a histamine releasing agent. Inhibition of this release is observed to determine an activity value. […]
A solution of sample adjusted to a concentration of 0.01 to 0.003% in Tyrode's solution containing phosphatidyl-L-serine (PS) (1.75 mL) was preincubated at 37° C. for 5 min. To the solution was added 0.05 mL of the mast cell suspension from the rat abdominal cavity and the mixture was preincubated for further 15 min. […] A control was prepared as described above except that 1.75 mL of Tyrode's solution containing PS was used in place of 1.75 mL of the sample solution in Tyrode's solution containing PS and 0.2 mL of […] PS. After quenching the reaction by ice cooling, the mixture was centrifuged at 300×g and 4° C. for 10 min. The amounts of histamine were determined for the supernatant and the sediment, respectively, according to the method of Shore et al. to calculate an inhibition rate to histamine release.
Calculation equation for a histamine release rate [formula]
PS=Amount of histamine in the supernatant
PR=Amount of histamine remaining in the cells
Calculation equation for a release inhibition rate [formula]
S=Release rate of the sample
C=Release rate of the control […]

solubility in water [1]: freely soluble
SMILES: O=c1c(O[C@@H]2OC(CO[C@@H]3OC(CO)[C@@H](O)C(O)C3O)[C@@H](O)C(O)C2O)c(-c2ccc(O)cc2)oc2cc(O)cc(O)c12 (stereo partly drawn) [kaempferol 3-0 [β-D-glucopyranosyl-(1→6)-β-D-glucopyranoside]]
Inhibition rate ([2]; concentration 3 × 10^−5 g/mL): 28.5%
Inhibition rate ([2]; concentration 9 × 10^−5 g/mL): 98.4%
